Earlier results on three molecules are cited in patent publication US20040151761A1, “Methods and compositions utilizing astaxanthin” (priority 2003, published 2004).

The test system of one series is human neuroblastoma cell. The settings on record: cited from earlier work.
For a further series, the system named is mouse splenocytes. The settings on record: cultured cell assay (Jyonouchi et al.); cited from earlier work.
The test system of the next series is IgG. Particulars: dogs, 20 mg; cited from earlier work.
For series [1] the following is noted: cited from earlier work.
For series [2], the system named is tumor necrosis factor (TNF). The settings on record: hamsters; cited from earlier work.
The next series concerns lymphocyte. The settings on record: rats; cited from earlier work.
Series [3] relates to chemical-induced carcinogenesis. Particulars: mice; cited from earlier work.

Turning to `CC1=C(/C=C/C(C)=C/C=C/C(C)=C/C=C/C=C(C)/C=C/C=C(C)/C=C/C2=C(C)CCCC2(C)C)C(C)(C)CCC1` [beta-carotene], the “human neuroblastoma cell proliferation” value with human neuroblastoma cell was “inhibit human neuroblastoma cell proliferation”. In addition, the “in vitro antibody response of mouse splenocytes to T-dependent antigens” value in the series with mouse splenocytes is listed as “increase in vitro antibody response”. Moreover, the “plasma IgG concentration versus un-supplemented animals” value in the series with IgG was “higher concentrations of plasma IgG than un-supplemented animals”. The “conversion of beta-carotene to vitamin A” value in series [1] (cats (Schweigert et al. 2002)) is listed as “not accompanied by conversion of beta-carotene to vitamin A”. The absorption of beta-carotene result in series [1] (domestic cats (Chew et al. 2000)) was “readily absorb beta-carotene”.

Take `CC1=C(/C=C/C(C)=C/C=C/C(C)=C/C=C/C=C(C)/C=C/C=C(C)/C=C/C2=C(C)C(=O)CCC2(C)C)C(C)(C)CCC1=O` [canthaxanthin]: in series [2], the “production of tumor necrosis factor (TNF) by macrophages” value was “enhances the production of tumor necrosis factor (TNF)”. In addition, in the series on lymphocyte, the lymphocyte proliferation result was “increases lymphocyte proliferation”. The chemical-induced carcinogenesis result in series [3] is listed as “prevent chemical-induced carcinogenesis”.

On to `CC1=C[C@H](O)CC(C)(C)[C@H]1/C=C/C(C)=C/C=C/C(C)=C/C=C/C=C(C)/C=C/C=C(C)/C=C/C1=C(C)C[C@@H](O)CC1(C)C` [lutein], for which the “plasma IgG concentration versus un-supplemented animals” value with IgG is “higher concentrations of plasma IgG than un-supplemented animals”.
